Reference: PMC6259833, “Antioxidant Bibenzyl Derivatives from Notholaena nivea Desv” (Molecules, 2011)
“Also recorded” adds a separate entry of the source.

How the values were obtained:
[1] = biological target: T1, xanthine oxidase (XOD) (Bos taurus, UniProt P80457); assay: Xanthine oxidase inhibition assay (uric acid formation); assay type: biochemical; details: for IC50: uric acid from xanthine, 295 nm, mean ± SD
T1 construct: purchased Sigma Aldrich (Gillingam, Dorset, U.K.)
Procedure: Xanthine oxidase inhibition activity was evaluated by the spectrophotometric measurement of the formation of uric acid by xanthine. A 100 µM solution of xanthine in 0.1 M phosphate buffer pH 7.8 with 0.04 units/mL of xanthine oxidase was incubated for 10 min at room temperature and read at 295 nm against a blank sample. Various concentrations of testing compounds were added to samples before the enzyme has been instilled and their effect on the generation of uric acid was used to calculate regression lines and IC50 values.

[2] = Superoxide anion enzymatic generation assay (xanthine/xanthine oxidase, NBT reduction); assay type: biochemical; details: xanthine/XOD system, 560 nm, mean ± SD, read-out: Superoxide anion scavenging activity IC50
Procedure: Superoxide anion was generated in an enzymatic system by preparing a mixture of xanthine and xanthine oxidase. The reaction mixture included 0.1 mM EDTA, 50 µg/mL bovine serum albumine (BSA), 25 µM nitroblue tetrazolium, 0.1 mM xanthine and 3.3 × 10^−3 units xanthine oxidase (XOD) in 40 mM sodium carbonate buffer (pH 10.2) in a final volume of 3 mL. After incubation at 25 °C with increasing concentrations of samples, the absorbance of formazan produced was determined at 560 nm.
The inhibitory effect of samples on the generation of superoxide anion were estimated by the equation: Inhibitory ratio = (A0−A1) × 100/ A0; where A0 absorbance with no addition of sample and A1 absorbance with addition of sample. Inhibitory ratio for each sample was plotted as a function of the concentration, then was calculated the IC50 value, with the statistical method of linear regression.

[3] = system: Caco-2 cells; assay: H2O2-induced cytotoxicity in differentiated Caco-2 cells, neutral red assay; assay type: cell-based, human; details: for viability at 250 µM: compound 250 μmol/L; for protection against H2O2-induced toxicity (in words): compound 250 µmol/L, pretreatment before 10 mmol/L H2O2
Procedure: The Caco-2 cells strain was obtained from Prof. A. Leone research group (Dipartimento di Scienze Farmaceutiche, Sezione Biologica, Università degli Studi di Salerno, Fisciano, Italy) and used between passages 75 to 90. The cells were routinely maintained in DMEM, containing 200 mL/L FCS, 10 mL/L of 100× nonessential aminoacids, 2 mmol/L L-glutamine, 5 × 10^4 IU/L penicillin, 50 mg/L streptomycin at 37 °C in a 5% CO2 atmosphere at 90-100% relative humidity. Cell were grown in 10-cm petri dishes. For experiments, cells were seeded at a density of 90,000 cells/cm^2 in a Transwell insert, and the medium (0.1 mL in the insert and 0.8 mL in the well) was changed every 48 h. Fourteen to sixteen days after confluence, the integrity of the monolayer of differentiated cells was monitored according to the method of Hildago et al..
An iron-free medium (EMEM) was used for the oxidative stress induction experiments. The oxidative stress was induced in the apical compartment of the transwell insert by addition of H2O2. After 20 h of incubation, several oxidative stress markers were measured. To assay the capacity of these compounds to protect Caco-2 cells from ROM-mediated oxidative injury, cells were preincubated for 4 h with compounds, which had been added to the apical side of monolayer. After the end of preincubation time, the medium was changed before the addition of the of the oxidative stress-inducing agents.
We assessed the cytotoxicity of ROM on Caco-2 by the viability test of neutral red uptake, performed according to the procedure of Fautz et al.. After oxidative stress induction the medium in the insert was removed and replaced with 0.1 mL of fresh medium containing […] neutral red. At the end of 3 h of incubation, the medium was removed and cells were washed twice with PBS; finally the incorporated neutral red was released from cells by incubation for 15 min at room temperature in the presence of 1 mL of cell lysis buffer containing acetic acid (1%, v/v) and ethanol (50% v/v). To measure the dye taken up, the cell lysis products were centrifuged and supernatants spectrophotometrically measured at 540 nm.

[4] = TEAC free radical scavenging assay (ABTS radical cation); details: for TEAC: Trolox concentration with inhibition equivalent to a 1 mM solution of the compound, ABTS+., 734 nm, mean ± SD, triplicate
Procedure: The TEAC value is based on the ability of the antioxidant to scavenge the ABTS^+.. ABTS^+. cation radical was produced by the reaction between ABTS (7 mM) in water and potassium persulfate (2.45 mM), kept in the dark at room temperature for 12 hours. ABTS^+. is a blue-green cromogen with a characteristic absorption at 734 nm. The ABTS^+. solution was diluted with PBS, pH 7.4, to an absorbance of 0.70 at 734 nm and equilibrated at 30 °C.
Samples were diluted with methanol to have 0.3 mM, 0.5 mM, 1 mM, 1.5 mM, 2 mM solutions. The reaction was enhanced by the addition of diluted ABTS (1 mL) to 10 µL of each solution of sample or Trolox (standard), or […] of methanol (blank). The determination was repeated three times for each sample solution. The percentage inhibition of absorbance at 734 nm was calculated for each concentration in function of the blank’s absorbance. The percentage inhibition was plotted as a function of compound or standard concentration. The antioxidant activities of compounds 1-6 are expressed as TEAC, Trolox equivalent antioxidant activity. TEAC value is defined as the concentration of standard Trolox solution with equivalent percentage inhibition to a 1 mM concentration solution of the compound after investigation.

[5] = Coupled oxidation of β-carotene and linoleic acid (linoleic acid autoxidation assay); details: 15 µg/mL; for antioxidant activity in β-carotene/linoleic acid model (in words): compared with BHT standard; for Linoleic acid autoxidation inhibition (AA), 1 h: t = 60 min; for Linoleic acid autoxidation inhibition (AA), 1 h / Linoleic acid autoxidation inhibition (AA), 2 h: β-carotene bleaching, 50 °C; for Linoleic acid autoxidation inhibition (AA), 2 h: t = 120 min
Procedure: Heat-induced oxidation of an aqueous emulsion system of β-carotene and linoleic acid was measured by the method described by Pratt (1992). A quantity of linoleic acid (20 mg) and Tween 20 (200 mg) were placed in a flask, and a solution of β-carotene (2 mg) in CHCl3 (10 mL) was added. After removal of CHCl3, oxygenated distilled water (50 mL) was added. Aliquots of each compound (200 µL), dissolved in ethanol to a 15 µg/mL solution, were added to each flask with shaking. Samples without test compounds were used as blanks and sample with 2,6 di-tert-butyl-4-methylphenol (BHT) was used as a control substance. Samples were subjected to the oxidation, by placing them in an oven at 50 °C for 3 hours. The absorbance was red at 470 nm at regular intervals to monitor the rate of bleaching of ß-carotene. The antioxidant activities was expressed as AA, calculated with the equation Inhibitory ratio (AA) = 100 [1−A0−At]/ A00−A0t; where A0 was the absorbance at the beginning of the incubation, with compound; At was the absorbance at the time t, with compound; A00 was the absorbance at beginning of the incubation, without compound; A0t the absorbance at the time t, without compound. Each experiment was performed in triplicate.

[6] = Homo sapiens, Caco-2, 4 h preincubation, then 10 mmol/L H2O2 for 20 h, neutral red, read-out: cell viability

T1 sequence (P80457 2-1332 limits assumed): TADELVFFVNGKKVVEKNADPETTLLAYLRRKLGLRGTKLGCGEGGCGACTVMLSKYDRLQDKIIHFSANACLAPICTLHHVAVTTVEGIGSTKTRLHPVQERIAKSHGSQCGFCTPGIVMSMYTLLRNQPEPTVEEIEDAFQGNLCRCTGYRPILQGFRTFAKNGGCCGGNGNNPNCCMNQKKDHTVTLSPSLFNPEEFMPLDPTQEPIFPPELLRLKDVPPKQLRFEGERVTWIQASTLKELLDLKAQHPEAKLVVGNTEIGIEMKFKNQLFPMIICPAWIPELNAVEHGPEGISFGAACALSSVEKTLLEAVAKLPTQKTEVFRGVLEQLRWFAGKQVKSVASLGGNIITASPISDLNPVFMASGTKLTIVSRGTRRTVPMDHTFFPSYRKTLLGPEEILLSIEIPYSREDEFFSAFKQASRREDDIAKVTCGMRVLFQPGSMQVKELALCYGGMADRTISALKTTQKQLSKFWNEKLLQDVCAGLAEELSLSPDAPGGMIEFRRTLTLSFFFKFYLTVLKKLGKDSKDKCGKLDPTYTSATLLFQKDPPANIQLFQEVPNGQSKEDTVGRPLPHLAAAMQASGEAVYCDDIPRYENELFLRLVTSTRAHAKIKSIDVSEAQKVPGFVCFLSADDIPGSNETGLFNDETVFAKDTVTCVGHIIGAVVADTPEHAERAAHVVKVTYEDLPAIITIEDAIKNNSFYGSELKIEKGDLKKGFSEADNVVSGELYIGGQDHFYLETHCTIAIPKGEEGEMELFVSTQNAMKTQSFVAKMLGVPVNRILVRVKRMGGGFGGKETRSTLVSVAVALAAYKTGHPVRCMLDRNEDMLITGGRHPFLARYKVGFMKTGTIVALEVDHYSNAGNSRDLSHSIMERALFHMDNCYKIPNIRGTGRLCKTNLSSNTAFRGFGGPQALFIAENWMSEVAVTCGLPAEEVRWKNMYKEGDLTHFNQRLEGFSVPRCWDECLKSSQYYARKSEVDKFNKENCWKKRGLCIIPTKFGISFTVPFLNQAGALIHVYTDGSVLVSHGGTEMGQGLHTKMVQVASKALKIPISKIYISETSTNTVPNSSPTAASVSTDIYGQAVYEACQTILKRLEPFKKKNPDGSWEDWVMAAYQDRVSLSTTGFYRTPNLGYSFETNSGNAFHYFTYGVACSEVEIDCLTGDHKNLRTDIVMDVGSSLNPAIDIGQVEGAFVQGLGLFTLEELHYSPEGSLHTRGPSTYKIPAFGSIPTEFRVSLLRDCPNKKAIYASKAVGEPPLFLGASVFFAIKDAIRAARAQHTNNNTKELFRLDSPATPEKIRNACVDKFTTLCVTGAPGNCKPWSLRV

Compound | activity as direct inhibitor of xanthine oxidase (in words) [1] | IC50 [1] [µM] | IC50 [2] [µM] | viability at 125 µM ([3]; Homo sapiens, Caco-2, compound 125 μmol/L, 4 h preincubation, then 10 mmol/L H2O2 for 20 h, neutral red, read-out: cell viability) [%] | viability at 250 µM [3, 6] [%] | protection against H2O2-induced toxicity (in words) [3] | radical scavenging activity in ABTS/TEAC test (in words) [4] | TEAC [4] [mM] | antioxidant activity in β-carotene/linoleic acid model (in words) [5] | Linoleic acid autoxidation inhibition (AA), 1 h [5] [%] | Linoleic acid autoxidation inhibition (AA), 2 h [5] [%] | viability at 500 µM ([3]; Homo sapiens, Caco-2, compound 500 μmol/L, 4 h preincubation, then 10 mmol/L H2O2 for 20 h, neutral red, read-out: cell viability) [%] | protection against H2O2-induced alterations (in words) ([3]; compound 500 µmol/L preincubation) | loss of cell viability ([3]; 20 h of treatment with 10 mmol/L H2O2) | cell viability ([3]; H2O2 10 mmol/L alone, 20 h, neutral red) [%]
COc1cc(O)cc(CCc2ccc(O)cc2)c1 [Compound 6, 3,12-dihydroxy-5-methoxybibenzyl] | no activity | > 100 | 83.3 ± 1.06 | 90 | 98 | no decrease in cell viability; also recorded: prevent H2O2-induced cytotoxicity; also recorded: prevented | most active compound | 2.55 ± 0.02 | moderate activity | 29.35 | 7.31 |  |  |  | 
COc1cc(CCc2ccc(O)cc2)cc(Oc2ccc(CCc3cc(OC)cc(O)c3C(=O)O)cc2)c1 [Compound 3, 12-O-[3’-(5’-methoxy-12’-hydroxy)-bibenzyl]-5-hydroxy-3-methoxybibenzyl-6-carboxylic acid] | no activity | > 100 | 78.2 ± 1.15 |  |  |  |  | 1.22 ± 0.02 | no activity | 0 | 0 |  |  |  | 
Oc1ccc(CCc2cc(O)cc(O)c2)cc1 [Dihydroresveratrol, reference compound] |  | > 100 | 60.9 ± 1.12 |  |  |  |  | 2.3 ± 0.07 | lower activity | 16.11 | 20.12 |  |  |  | 
COc1cc(O)c(C(=O)O)c(CCc2ccc(O)cc2)c1 [Compound 1, 5,12-dihydroxy-3-methoxy-dibenzyl-6-carboxylic acid] | no activity | > 100 | 96.93 ± 0.42 |  | 80 | inactive | most active | 1.98 ± 0.05 | highest activity after 1h; also recorded: moderate activity | 32.60 | 11.70 | 88 | prevented |  | 
O=c1c(O)c(-c2ccc(O)c(O)c2)oc2cc(O)cc(O)c12 [Quercetin, quercetin, reference compound] |  |  |  |  |  |  |  | 2.91 ± 0.02 |  |  |  |  |  |  | 
COc1cc(CCc2ccc(Oc3cc(CCc4ccc(Oc5cc(CCc6ccc(O)cc6)c(C(=O)O)c(OC)c5)cc4)c(C(=O)O)c(OC)c3)cc2)c(C(=O)O)c(OC)c1 [Compound 4, 3-O-{12’-[12’’-O-(3’’,5’’-dimethoxy-6’’-carboxybibenzyl)]-5’-methoxy-6’-carboxybibenzyl}-12-hydroxy-5-methoxybibenzyl-6-carboxylic acid] | no activity | > 100 | 81.3 ± 2.01 |  |  |  |  | 1.5 ± 0.03 | no activity | 0 | 0 |  |  |  | 
OO [Compound H2O2, hydrogen peroxide, reference compound] |  |  |  |  |  |  |  |  |  |  |  |  |  | about 25% | 75
COc1ccc(CCc2cc(OC)cc(O)c2C(=O)O)cc1 [Compound 5, 5-hydroxy-3,12-dimethoxy-6-carboxybibenzyl] | moderate activity | 64 ± 2.13 | 58.4 ± 1.18 |  |  |  |  | 1.21 ± 0.01 | moderate activity | 26.56 | 19.72 |  |  |  | 
Cc1cc(C(C)(C)C)c(O)c(C(C)(C)C)c1 [BHT, 2,6 di-tert-butyl-4-methylphenol, reference compound] |  |  |  |  |  |  |  |  |  | 60.00 | 51.07 |  |  |  | 
COc1cc(CCc2ccc(O)cc2)c(C(=O)O)c(OC(C)=O)c1 [Compound 2, 5-acetyloxy-12-hydroxy-3-methoxybibenzyl-6-carboxylic acid] | moderate activity | 71.39 ± 0.45 | 81.11 ± 0.68 |  |  |  |  | 1.38 ± 0.01 | moderate activity | 28.51 | 19.16 |  |  |  | 
